Reference: US8580799B2 (priority 2008, dated 2013)
Read-outs that look alike come from different tables or passages of the source.

Experiment: Measurement of logP values by HPLC on reversed phase columns (EEC directive 79/831 Annex V.A8)
Type: physicochemical
Settings: for chromatographic logP: reversed phase HPLC column
[1] = method [b]: LC-MS at pH 2.7 with 0.1% formic acid in water and acetonitrile, linear gradient 10% to 95% acetonitrile
[2] = method [a]: pH 2.3 with 0.1% phosphoric acid and acetonitrile as eluent
[3] = HCOOH (formic acid) method, read-out: log P(HCOOH)
[4] = method [b]: LC-MS at pH 2.7 with 0.1% formic acid in water and acetonitrile, linear gradient 10% to 95% acetonitrile, read-out: logp

## CCCCC#Cc1nc(CON=C(c2ccccc2)c2nsnc2C)cs1 [Example 41]
[1]
  logp: 5.72^[b]

## CCCCC#Cc1nc(CON=C(c2ccc(Cl)cc2)c2nnsc2C)cs1 [Example 4]
[1]
  logp: 5.68^[b]

## CCCCC#Cc1nc(CON=C(c2ccccc2)c2nsnc2C(F)(F)F)cs1 [Example 40]
[1]
  logp: 6.37^[b]

## CCCCCCCOC(=O)Nc1cccc(CON=C(c2ccccc2)c2nsnc2C)n1 [Example 26]
[1]
  logp: 6.42^[b]

## CCCCCOC(=O)Nc1nc(CON=C(c2ccccc2)c2ccnn2C)cs1 [Example 60]
[1]
  logp: 4.16^[b]

## CCCCC#Cc1nc(CON=C(c2cccc(F)c2)c2nnsc2C)cs1 [Example 7]
[1]
  logp: 5.25^[b]

## CC(C)CC(=O)Nc1ccnc(CON=C(c2ccccc2)c2nsnc2C(F)(F)F)n1 [Example 14]
[2]
  logp: 4.09^[a]

## CCCCCCNc1cccc(CON=C(c2cccc(F)c2)c2nonc2C)n1 [Example 42]
[1]
  logp: 3.57^[b]

## Cn1nccc1C(=NOCc1csc(N)n1)c1ccccc1 [Example 48]
[1]
  logp: 1.5^[b]

## CCCCC#Cc1nc(CON=C(c2ccccc2)c2nonc2C)cs1 [Example 45]
[1]
  logp: 5.51^[b]

## CCCCC(CC)COC(=O)Nc1cccc(CON=C(c2ccccc2)c2nsnc2C)n1 (stereo not shown) [Example 27]
[1]
  logp: 6.76^[b]

## CCOC(=O)Nc1nc(CON=C(c2ccccc2)c2ccnn2C)cs1 [Example 64]
[1]
  logp: 3^[b]

## CCCCCCNc1cccc(CON=C(c2cccc(F)c2)c2nnsc2C)n1 [Example 1, 6-[({[(3-fluorophenyl)(5-methyl-1,2,3-thiadiazol-4-yl)methylene]amino}oxy)methyl]-N-hexylpyridin-2-amine]
[3]
  chromatographic logP: 3.06
[4]
  chromatographic logP: 3.06

## Cc1nsnc1C(=NOCc1cccc(NC(=O)OC2CCCC2)n1)c1ccccc1 [Example 21]
[1]
  logp: 5.11^[b]

## Cn1nccc1C(=NOCc1csc(NC(=O)OC(C)(C)C)n1)c1ccccc1 [Example 63]
[1]
  logp: 3.69^[b]

## CCCCCCNc1cccc(CON=C(c2ccccc2)c2nonc2C)n1 [Example 43]
[1]
  logp: 3.31^[b]

## Cn1nccc1C(=NOCc1csc(NC(=O)OCCCCCl)n1)c1ccccc1 [Example 57]
[1]
  logp: 3.65^[b]

## CCCCC#Cc1nc(CON=C(c2ccc(F)cc2)c2nonc2C)cs1 [Example 44]
[1]
  logp: 5.99^[b]

## C=CCCCCNc1cccc(CON=C(c2ccccc2)c2nsnc2C)n1 [Example 35]
[1]
  logp: 2.78^[b]

## Cc1nsnc1C(=NOCc1cccc(NC(=O)OCc2ccccc2)n1)c1ccccc1 [Example 22]
[1]
  logp: 4.92^[b]

## Cc1nsnc1C(=NOCc1cccc(NC(=O)OCCCCC(F)(F)F)n1)c1ccccc1 [Example 28]
[1]
  logp: 4.97^[b]

## O=C(CCCc1ccccc1)Nc1ccnc(CON=C(c2ccccc2)c2nsnc2C(F)(F)F)n1 [Example 12]
[2]
  logp: 4.65^[a]

## CCNc1cccc(CON=C(c2ccccc2)c2nsnc2C)n1 [Example 33]
[1]
  logp: 1.89^[b]

## CCCCC#Cc1nc(CON=C(c2ccccc2F)c2nonc2C)cs1 [Example 47]
[1]
  logp: 5.39^[b]

## CCCCC#Cc1nc(CON=C(c2cccc(Cl)c2)c2nnsc2C)cs1 [Example 6, 1-(3-chlorophenyl)-N-([2-(hex-1-yn-1-yl)-1,3-thiazol-4-yl]methoxy)-1-(5-methyl-1,2,3-thiadiazol-4-yl)methanimine]
[3]
  chromatographic logP: 5.68
[4]
  chromatographic logP: 5.68

## Nc1nc(CON=C(c2ccccc2)c2nsnc2C(F)(F)F)cs1 [Example 10]
[2]
  logp: 2.26^[a]

## CCCCC(=O)Nc1nc(CON=C(c2ccccc2)c2ccnn2C)cs1 [Example 55]
[1]
  logp: 3.39^[b]

## Cn1nccc1C(=NOCc1csc(C#CC2CC2)n1)c1ccccc1 [Example 62]
[1]
  logp: 3.87^[b]

## CCCCCCN(C(=O)OC(C)(C)C)c1cccc(CON)n1
[3]
  chromatographic logP: 3.42

## Cn1nccc1C(=NOCc1csc(NC(=O)C(C)(C)C)n1)c1ccccc1 [Example 54]
[1]
  logp: 3.46^[b]

## O=C1c2ccccc2C(=O)N1c1cccc(CON=C(c2ccccc2)c2nsnc2C(F)(F)F)n1 [Example 18]
[2]
  logp: 4.31^[a]

## CCCCCOC(=O)Nc1cccc(CON=C(c2ccccc2)c2nsnc2C(F)(F)F)n1 [Example 19]
[2]
  logp: 5.68^[a]

## Cc1nsnc1C(=NO)c1ccccc1 [N-hydroxy-1-(4-methyl-1,2,5-thiadiazol-3-yl)-1-phenylmethanimine]
[3]
  chromatographic logP: 2.26

## CCCCCNc1cccc(CON=C(c2ccccc2)c2nsnc2C)n1 [Example 38]
[1]
  logp: 2.7^[b]

## CCCCCOC(=O)Nc1cccc(CON=C(c2ccccc2)c2nsnc2C)n1 [Example 20]
[1]
  logp: 5.5^[b]

## Cn1nccc1C(=NOCc1csc(NC(=O)Cc2ccccc2)n1)c1ccccc1 [Example 53]
[1]
  logp: 3.42^[b]

## C#CCCOC(=O)Nc1nc(CON=C(c2ccccc2)c2ccnn2C)cs1 [Example 61]
[1]
  logp: 3.11^[b]

## Cn1nccc1C(=NOCc1csc(Br)n1)c1ccccc1 [Example 49]
[1]
  logp: 3.39^[b]

## CC(C)(C)C(=O)Nc1ccnc(CON=C(c2ccccc2)c2nsnc2C(F)(F)F)n1 [Example 16]
[2]
  logp: 4.24^[a]

## CCCCC#Cc1nc(CON=C(c2cccc(F)c2)c2nonc2C)cs1 [Example 46]
[1]
  logp: 5.59^[b]

## CCCCC#Cc1nc(CON2C(=O)c3ccccc3C2=O)cs1 [2-{[2-(hex-1-yn-1-yl)-1,3-thiazol-4-yl]methoxy}-1H-isoindole-1,3(2H)-dione]
[3]
  chromatographic logP: 3.78

## CCCCCC(=O)Nc1ccnc(CON=C(c2ccccc2)c2nsnc2C(F)(F)F)n1 [Example 17]
[2]
  logp: 4.54^[a]

## Cn1nccc1C(=NOCc1csc(NC(=O)COc2ccccc2)n1)c1ccccc1 [Example 50]
[1]
  logp: 3.55^[b]

## COCCOCC(=O)Nc1ccnc(CON=C(c2ccccc2)c2nsnc2C(F)(F)F)n1 [Example 13]
[2]
  logp: 3.46^[a]

## CCCCCOC(=O)Nc1ccnc(CON=C(c2ccccc2)c2nsnc2C(F)(F)F)n1 [Example 9]
[2]
  logp: 4.92^[a]

## Cc1nsnc1/C(=N\OCc1cccc(N)n1)c1ccccc1 [6-[({[(Z)-(4-methyl-1,2,5-thiadiazol-3-yl)(phenyl)methylene]amino}oxy)-methyl]pyridin-2-amine]
[3]
  chromatographic logP: 1.54

## CCCCCCNc1cccc(CON=C(c2ccccc2)c2nsnc2C)n1 [Example 31, N-hexyl-6-[({[(4-methyl-1,2,5-thiadiazol-3-yl)(phenyl)methylidene]amino}oxy)methyl]-pyridin-2-amine]
[3]
  chromatographic logP: 3.11
[4]
  chromatographic logP: 3.11

## CCCCCCOC(=O)Nc1cccc(CON=C(c2ccccc2)c2nsnc2C)n1 [Example 23]
[1]
  logp: 5.99^[b]

## Cc1nsnc1C(=NOCc1cccc(NC(=O)OC(C)(C)C)n1)c1ccccc1 [Example 30, tert-butyl {6-[({[(4-methyl-1,2,5-thiadiazol-3-yl)(phenyl)methylene]-amino}oxy)methyl]pyridin-2-yl}carbamate]
[3]
  chromatographic logP: 4.97
[4]
  chromatographic logP: 4.97

## CCCCC#Cc1nc(CON=C(c2ccc(F)cc2)c2nnsc2C)cs1 [Example 5]
[1]
  logp: 5.19^[b]

## CCCCNc1cccc(CON=C(c2ccccc2)c2nsnc2C)n1 [Example 32]
[1]
  logp: 2.41^[b]

## CCCCOC(=O)Nc1nc(CON=C(c2ccccc2)c2ccnn2C)cs1 [Example 58]
[1]
  logp: 3.76^[b]

## CC#CCOC(=O)Nc1cccc(CON=C(c2ccccc2)c2nsnc2C)n1 [Example 25, But-2-yn-1-yl {6-[({[(4-methyl-1,2,5-thiadiazol-3-yl)(phenyl)methylidene]amino}oxy)-methyl]pyridin-2-yl}carbamate]
[3]
  chromatographic logP: 4.28
[4]
  chromatographic logP: 4.28

## CCCCCC(=O)Nc1nc(CON=C(c2ccccc2)c2ccnn2C)cs1 [Example 52]
[1]
  logp: 3.8^[b]

## Nc1nc(CON2C(=O)c3ccccc3C2=O)cs1 [2-[(2-amino-1,3-thiazol-4-yl)methoxy]-1H-isoindole-1,3(2H)-dione]
[3]
  chromatographic logP: 0.74

## Cc1nsnc1C(=NOCc1cccc(NCCC2CCCCC2)n1)c1ccccc1 [Example 37]
[1]
  logp: 3.46^[b]

## O=C(Cc1ccccc1)Nc1ccnc(CON=C(c2ccccc2)c2nsnc2C(F)(F)F)n1 [Example 15]
[2]
  logp: 4.09^[a]

## CCCCCCN(C(=O)OC(C)(C)C)c1cccc(CON2C(=O)c3ccccc3C2=O)n1
[3]
  chromatographic logP: 5.48

## O=C(Nc1ccnc(CON=C(c2ccccc2)c2nsnc2C(F)(F)F)n1)c1ccccc1 [Example 11]
[2]
  logp: 4.14^[a]

## CCCCC#Cc1nc(CON)cs1 [4-[(aminooxy)methyl]-2-(hex-1-yn-1-yl)-1,3-thiazole]
[3]
  chromatographic logP: 1.76

## C=CCCOC(=O)Nc1cccc(CON=C(c2ccccc2)c2nsnc2C)n1 [Example 24]
[1]
  logp: 4.65^[b]

## Cn1nccc1C(=NOCc1csc(NC(=O)CCc2ccccc2)n1)c1ccccc1 [Example 51]
[1]
  logp: 3.69^[b]

## CCCCCCC(=O)Nc1nc(CON=C(c2ccccc2)c2ccnn2C)cs1 [Example 56]
[1]
  logp: 4.18^[b]

## CCCCCCN(C(=O)OC(C)(C)C)c1cccc(CO)n1 [tert-butyl hexyl[6-(hydroxymethyl)pyridin-2-yl]carbamate]
[3]
  chromatographic logP: 3.94

## Nc1ccnc(CON=C(c2ccccc2)c2nsnc2C(F)(F)F)n1 [Example 8]
[2]
  logp: 1.75^[a]

## Cc1nsnc1C(=NOCc1cccc(N(C(=O)OC(C)(C)C)C(=O)OC(C)(C)C)n1)c1ccccc1 [Example 29]
[1]
  logp: 5.47^[b]

## CCCNc1cccc(CON=C(c2ccccc2)c2nsnc2C)n1 [Example 34]
[1]
  logp: 2.11^[b]

## Cc1nsnc1C(=NOCc1cccc(NCCCc2ccccc2)n1)c1ccccc1 [Example 36]
[1]
  logp: 2.98^[b]

## CCCCCCOC(=O)Nc1nc(CON=C(c2ccccc2)c2ccnn2C)cs1 [Example 59]
[1]
  logp: 4.59^[b]

## CCCCCCNc1cccc(CON=C(c2ccccc2)c2nsnc2C(F)(F)F)n1 [Example 39]
[1]
  logp: 3.44^[b]

## O=C1c2ccccc2C(=O)N1OCc1csc(Br)n1 [2-[(2-bromo-1,3-thiazol-4-yl)methoxy]-1H-isoindole-1,3(2H)-dione]
[3]
  chromatographic logP: 2.39
